US8916681B2, “Compound, use and method” (Medical Research Council, priority 2007, dated 2014)
Non-standard residues stand in square brackets, D forms with d. Residues, ends and D or L forms follow the SMILES beside them.

Legend:
Format in all cases: cell-based
[1] = system: HUVECs (Human Umbilical Vein Endothelial Cells); experiment: Cell migration (wound healing) assay in HUVECs; conditions: 22 hrs
Procedure: Human Umbilical Vein Endothelial Cells (HUVECs) isolated from neonatal umbilical cord were used as they endogenously express gpr-54, which is though to be involved in cell migration in the placenta. Chinese hamster ovary (CHO) cells which stably express the human gpr-54 receptor were used as a model cell line for wound healing assays. […] Complete media was added along with 1 nM Kisspeptin-10 for HUVECs and 100 nM Kisspeptin-10 for CHO cells, the optimal concentrations to inhibit cell migration (wound healing) in each cell type, in the presence and absence of antagonist 233, 234, 273 and 276 for HUVECs and 234 for CHOs. […] Cells were photographed on the axiovert 2000 at 20× magnification in phase contrast (Hori et al., 2001. Metastin suppresses the motility and growth of CHO cells transfected with its receptor. Biochem Biophys Res Commun 286, 958-963; Stafford et al., 2002, Identification and characterization of mouse metastasis-suppressor KiSS1 and its G-protein-coupled receptor. Cancer Res 62, 5399-5404).

GPR54 [2] = target: T1, GPR54 (Homo sapiens, UniProt Q969F8); experiment: Inositol phosphate (IP) stimulation assay in CHO/gpr-54 cells; set-up: G. Vassart, Univ; Brussels; conditions: CHO cells stably-expressing human gpr-54
Procedure: Inositol-3-phoshate Stimulation Assay—Cell monolayers had 0.5 mls HEPES modified DMEM supplemented with 1% Penicillin/Streptomycin for 30 mins at 37° C. to block IP3 breakdown. Cells were then stimulated with 0.5 mls Kisspeptin-10 and analogues (10 pM-1 uM) diluted at 1:1000 in the above media for 1 hr at 37° C., then in 10 mM Formic acid at 4° C. for 1 hr to lyse cells. Lysate was then transferred to plastic tubes containing 0.5 mls Dowex resin to bind the radioactive IP3 and the resin was then washed with 1 ml H2O. The resin was then washed with 60 mM NH4 formate/5 mM Sodium tetraborate followed by 1M NH4 formate/0.1M Formic acid to release the bound radiation. Then 800 μls of the radioactive solution were transferred to scintillation vials containing 2.5 mls scintillation fluid and radioactivity counted on a Beta counter for 60 seconds.
IP stimulation refers to intrinsic residual agonist activity where estimateable.
The cells were maintained in Dulbecco's modified Eagle's medium (DMEM; Sigma) supplemented with 10% fetal calf serum, 2% glutamine and 1% penicillin (10,000 units/ml)/streptomycin (10,000 mg/ml) at 37° C. in a humidified 5% CO2 atmosphere.
Prior to stimulation CHO/gpr-54 cells were washed twice with Dulbecco's phosphate-buffered saline (DPBS; without calcium or magnesium) then incubated overnight with ^3H-myoinositol, labeled HEPES-modified DMEM with 1% penicillin/streptomycin at 37° C. HEPES-modified DMEM supplemented with 1% penicillin/streptomycin and 1% lithium chloride (0.5 ml) was added to cells for 30 min at 37° C. to block IP hydrolysis. Cells were then stimulated with 0.5 ml kisspeptin-10 and analogues (10 pM-1 μM) diluted at 1:100 in the above media for 1 h at 37° C., then with 10 mM formic acid at 4° C. for 1 h to lyse cells. Lysates were transferred to plastic tubes containing 0.5 ml Dowex resin to bind the radioactive IP and the resin was then washed with 1 ml water. The resin was next washed with 60 mM ammonium formate/5 mM sodium tetraborate. followed by 1M ammonium formate/0.1M formic acid to release the bound radiation. Then 800 μl of the radioactive solution were transferred to scintillation vials containing 2.5 ml scintillation fluid and radioactivity counted on a Beta counter for 60 sec. Experiments were repeated 3-5 times. IP production was plotted as mean values±SEM and analyzed by using a Student's t-Test (p≧0.05).

GPR54 [3] = target: T1, GPR54; experiment: Inositol phosphate (IP) antagonism assay: inhibition of 10 nM kisspeptin-10 stimulation of IP in CHO/gpr-54 cells; set-up: G. Vassart, Univ; Brussels; conditions: CHO cells, 10 nM kisspeptin-10; for IC50: unit inferred, given in M
Procedure: Inositol-3-phoshate Antagonistic Assay—Cell monolayers had 0.5 mls HEPES modified DMEM supplemented with […] for 30 mins at 37° C. to block IP3 breakdown. Cells were then stimulated with 0.25 mls 10 nM Kisspeptin-10 plus 0.25 mls of 10 nM Kisspeptin-10 or analogues (10 pM-10 uM) diluted at 1:1000 in the above media for 1 hr at 37° C., then in 10 mM Formic acid at 4° C. for 1 hr to lyse cells. Lysate was then transferred to plastic tubes containing 0.5 mls Dowex resin to bind the radioactive IP3 and the resin was then washed with 1 ml H2O. The resin was then washed with 60 mM NH4 formate/5 mM Sodium tetraborate followed by 1M NH4 formate/0.1M Formic acid to release the bound radiation. Then 800 μls of the radioactive solution were transferred to scintillation vials containing 2.5 mls scintillation fluid and radioactivity counted on a Beta counter for 60 seconds.
Chinese hamster ovary (CHO) cells stably-expressing the human gpr-54 receptor (CHO/gpr-54) were obtained from Prof. G. Vassart, Univ. Brussels. The cells were maintained in Dulbecco's modified Eagle's medium (DMEM; Sigma) supplemented with 10% fetal calf serum, 2% glutamine and 1% penicillin (10,000 units/ml)/streptomycin ([…]) at 37° C. in a humidified 5% CO2 atmosphere.
Experiments were repeated 3-5 times. IP production was plotted as mean values±SEM and analyzed using a Student's t-Test ([…]).

T1 sequence (Q969F8 whole entry): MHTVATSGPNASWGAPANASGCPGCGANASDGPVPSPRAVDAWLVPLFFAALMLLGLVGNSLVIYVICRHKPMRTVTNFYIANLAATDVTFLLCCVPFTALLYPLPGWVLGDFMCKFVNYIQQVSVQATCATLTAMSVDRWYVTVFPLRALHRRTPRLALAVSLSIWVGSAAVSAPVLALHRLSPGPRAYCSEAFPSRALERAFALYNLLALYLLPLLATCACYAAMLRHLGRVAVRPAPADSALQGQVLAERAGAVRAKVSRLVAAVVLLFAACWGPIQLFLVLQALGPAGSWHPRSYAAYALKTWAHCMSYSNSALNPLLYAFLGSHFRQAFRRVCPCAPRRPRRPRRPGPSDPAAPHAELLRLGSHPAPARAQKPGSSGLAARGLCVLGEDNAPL

stimulation of IP by the peptide alone (GPR54 [2])	IC50 (GPR54 [3]) [µM]	Inhibition of IP stimulation by 10 nM Agonist: % Inhibition of Max (GPR54 [3]) [%]	Compound	inhibition of migration by 1 nM Kisspeptin in the presence of peptide [1] [%]
little or no stimulation	0.02	–	CC(=O)N[C@@H](Cc1ccc(O)cc1)C(=O)N[C@@H](CC(N)=O)C(=O)N[C@@H](Cc1c[nH]c2ccccc12)C(=O)N[C@@H](CC(N)=O)C(=O)N[C@H](C)C(=O)N[C@@H](Cc1ccccc1)C(=O)NCC(=O)N[C@H](Cc1c[nH]c2ccccc12)C(=O)N[C@@H](CCCNC(=N)N)C(=O)N[C@@H](Cc1ccccc1)C(N)=O [Peptide 233] (Ac-YNWN[dA]FG[dW]RF-NH2)	10
–	0.004	79	CC(=O)N[C@H](C)C(=O)N[C@@H](CC(N)=O)C(=O)N[C@@H](Cc1c[nH]c2ccccc12)C(=O)N[C@@H](CC(N)=O)C(=O)N[C@H](CO)C(=O)N[C@@H](Cc1ccccc1)C(=O)NCC(=O)N[C@H](Cc1c[nH]c2ccccc12)C(=O)N[C@@H](CCCNC(=N)N)C(=O)N[C@@H](Cc1ccccc1)C(N)=O [Peptide 273] (Ac-[dA]NWN[dS]FG[dW]RF-NH2)	10
